Measured values as given in US20200138827A1, “SMALL MOLECULE MODULATORS OF HUMAN STING” (Curadev Pharma Limited, priority 2017, published 2020).
Read-outs that look alike come from different tables or passages of the source.

Legend:
WT/R232 STING protein = target: T1, WT/R232 STING protein (Homo sapiens, UniProt Q86WV6, H232R); assay: Luciferase reporter assay in HEK293T-hSTING-Luciferase cells, WT/R232; assay type: cell-based; conditions: 20 hr stimulation, read-out: R232 Activity (EC50 range)
T1 construct: host or cells: HEK293T
T1 sequence (Q86WV6 whole entry H232R): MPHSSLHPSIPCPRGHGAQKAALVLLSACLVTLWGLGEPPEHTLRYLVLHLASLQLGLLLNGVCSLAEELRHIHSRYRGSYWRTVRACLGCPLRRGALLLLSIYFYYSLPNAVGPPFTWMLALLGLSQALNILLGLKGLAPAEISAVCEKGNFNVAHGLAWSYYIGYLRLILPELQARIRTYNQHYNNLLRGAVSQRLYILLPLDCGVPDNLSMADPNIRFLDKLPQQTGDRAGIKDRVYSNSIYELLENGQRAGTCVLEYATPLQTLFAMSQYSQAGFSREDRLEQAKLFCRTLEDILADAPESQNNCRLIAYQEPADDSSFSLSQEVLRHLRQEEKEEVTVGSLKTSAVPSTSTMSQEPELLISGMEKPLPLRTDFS
Summary of the method: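 Clonal HEK293T cells stably expressing human STING R232 plus an ISRE/ISG54-driven luciferase reporter, 5×10^5 per well, stimulated with compounds for 20 h. Secreted luciferase in supernatant measured by luminescence; […].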

hSTING(H232) = target: T2, hSTING(H232) (Homo sapiens, UniProt Q86WV6); assay: Luciferase reporter assay in HEK293T-hSTING-Luciferase cells, H232 polymorph; assay type: cell-based; conditions: 20 hr stimulation, read-out: H232 activity (EC50 range)
T2 construct: host or cells: HEK293T
T2 sequence (Q86WV6 whole entry): as the sequence (Q86WV6 whole entry H232R) above, with R232H counted along it
From the text: (§1) • a) Stable STING expressing cells—Stable HEK293T STING-expressing cell lines were generated using plasmids purchased from Invivogen, Calif., USA, that contain STING cDNA cloned into the pUNO-1 vector under hEF1-HTLV promoter and containing the Blasticidin selection cassette. The plasmids hSTING(R232), hSTING(H232), hSTING(HAQ) were directly procured from Invivogen while hSTING (AQ) and hSTING (Q) were derived from hSTING(HAQ) and hSTING (R232) plasmids respectively by using a PCR based site directed mutagenesis method. These vectors were individually transfected into HEK293T cells using Lipofectamine (Invitrogen) and transfected cells were selected under Blasticidin selection. These transfected cells were further subjected to clonal selection using the limiting dilution method to obtain clonally pure populations of HEK cells transfected with each of the above mentioned human STING variants. Only those clones were selected in which ligand independent activation of STING was minimal. • b) Stable Luciferase reporter gene expressing cells—Stable HEK293T Luciferase reporter gene expressing cell lines were generated using pCDNA4 plasmids under an IRF-inducible promoter. This promoter is comprised of five tandem interferon-stimulated response elements (ISRE) fused to an ISG54 minimal promoter. This vector was transfected into HEK293T cells using Lipofectamine (Invitrogen) and transfected cells were selected under Zeocin selection. These transfected cells were further subjected to clonal selection using the limiting dilution method to obtain clonally pure populations of HEK cells transfected the Luciferase reporter construct. Only those clones were selected in which ligand independent induction of luciferase was minimal.
(§2) 5×10^5 clonally selected HEK293T-hSTING-Luciferase cells were seeded in 384-well plates in growth medium and stimulated with novel compounds. After 20 hr of stimulation supernatant were removed and secretary reporter gene activity were measured using the Quanti-Luc detection system (Invivogen) on a Spectramax i3X luminometer.
(§3) The 5 major polymorphisms of human STING are shown in FIG. 1, with their prevalence in human populations indicated.

hSTING(HAQ) = target: T3, hSTING(HAQ) (Homo sapiens, UniProt Q86WV6, G230A/H232R/R293Q/R71H); assay: Luciferase reporter assay in HEK293T-hSTING-Luciferase cells, HAQ polymorph; assay type: cell-based; conditions: 20 hr stimulation, read-out: HAQ activity (EC50 range)
T3 construct: host or cells: HEK293T
T3 sequence (Q86WV6 whole entry R71H/G230A/H232R/R293Q): as the sequence (Q86WV6 whole entry H232R) above, with R71H, G230A, R293Q counted along it
From the text: as §1, §2, §3

IRF pathway = assay: Reporter gene expression assay in THP1-Dual cells, IRF axis (secreted Lucia luciferase); assay type: cell-based, human; conditions: read-out: THP-IRF activity (EC50 range)
Protocol: (§4) THP1-Dual™ cells (Invivogen) were derived from the human THP-1 monocyte cell line by stable integration of two inducible reporter constructs. As a result, THP1-Dual™ cells allow the simultaneous study of the NF-κB pathway, by monitoring the activity of secreted SEAP, and the IRF pathway, by assessing the activity of a secreted luciferase (Lucia). […] THP1-Dual™ cells were seeded in 384-well plates in growth medium and stimulated with novel compounds. After […] of stimulation supernatant were removed and reporter proteins were readily measured in the cell culture supernatant using QUANTI-Blue™ (Invivogen), a SEAP detection reagent, and QUANTI-Luc™ (Invivogen), a luciferase detection reagent on a Spectramax i3X luminometer.

NF-κB pathway = assay: Reporter gene expression assay in THP1-Dual cells, NFkB axis (secreted SEAP); assay type: cell-based, human; conditions: read-out: THP-NFKB activity (EC50 range)
Protocol: as §4

Row | SMILES | EC50 (WT/R232 STING protein) [µM] | EC50 (hSTING(H232)) [µM] | EC50 (hSTING(HAQ)) [µM] | EC50 (IRF pathway; Homo sapiens, THP1-Dual) [µM] | EC50 (NF-κB pathway; Homo sapiens, THP1-Dual) [µM] | EC50 (IRF pathway) [µM] | EC50 (NF-κB pathway) [µM]
1 | CC1(C)Sc2ccc(C(=O)NCc3cc4ccccc4o3)cc2N(Cc2c(F)cccc2Cl)C1=O [Example 154, N-(benzofuran-2-ylmethyl)-4-(2-chloro-6-fluorobenzyl)-2,2-dimethyl-3-oxo-3,4-dihydro-2H-benzo[b][1,4] thiazine-6-carboxamide] | < 1 | 1 to 10 | < 1 | 1 to 10 | 1 to 10 |  | 
2 | CC1Sc2ccc(C(=O)NCc3ccco3)cc2N(Cc2cc(F)cc(F)c2)C1=O (stereo not drawn) [Example 156, 4-(3,5-difluorobenzyl)-N-(furan-2-ylmethyl)-2-methyl-3-oxo-3,4-dihydro-2H-benzo [b][1,4]thiazine-6-carboxamide] | < 1 | 1 to 10 | 1 to 10 | 1 to 10 | 1 to 10 |  | 
3 | CC1Sc2ccc(C(=O)NCc3c(F)cc(F)cc3F)cc2N(Cc2ccncc2)C1=O (stereo not drawn) [Example 157, 2-methyl-3-oxo-4-(pyridin-4-ylmethyl)-N-(2,4,6-trifluorobenzyl)-3,4-dihydro-2H-benzo[b][1,4] thiazine-6-carboxamide] | < 1 | 1 to 10 | 1 to 10 | 1 to 10 | 1 to 10 |  | 
4 | Cc1cc(CN2C(=O)C(C)Sc3ccc(C(=O)NCc4c(F)cc(F)cc4F)cc32)on1 (stereo not drawn) [Example 158, 2-methyl-4-((3-methylisoxazol-5-yl)methyl)-3-oxo-N-(2,4,6-trifluorobenzyl)-3,4-dihydro-2H-benzo[b][1,4] thiazine-6-carboxamide] | < 1 | 1 to 10 | 1 to 10 | 1 to 10 | 1 to 10 |  | 
5 | Cc1cc(CN2C(=O)C(C)Sc3ccc(C(=O)NCc4c(F)cc(F)cc4F)cc32)no1 (stereo not drawn) [Example 159, 2-methyl-4-((5-methylisoxazol-3-yl)methyl)-3-oxo-N-(2,4,6-trifluorobenzyl)-3,4-dihydro-2H-benzo[b][1,4] thiazine-6-carboxamide] | < 1 | 1 to 10 | 1 to 10 | 1 to 10 | 1 to 10 |  | 
6 | CC1Sc2ccc(C(=O)NCc3c(F)cc(F)cc3F)cc2N(Cc2cccc(C(N)=O)c2)C1=O (stereo not drawn) [Example 160, 4-(3-carbamoylbenzyl)-2-methyl-3-oxo-N-(2,4,6-trifluorobenzyl)-3,4-dihydro-2H-benzo[b][1,4] thiazine-6-carboxamide] | < 1 | > 10 | > 10 | > 10 | > 10 |  | 
7 | CC1(C)Sc2ccc(C(=O)NCc3cc4ccccc4o3)cc2N(Cc2ccccc2F)C1=O [Example 161, N-(benzofuran-2-ylmethyl)-4-(2-fluorobenzyl)-2,2-dimethyl-3-oxo-3,4-dihydro-2H-benzo[b][1,4] thiazine-6-carboxamide] | 1 to 10 | > 10 | 1 to 10 | > 10 | > 10 |  | 
8 | O=C(NCc1c(F)cc(F)cc1F)c1cnc2c(c1)N(Cc1c(F)cccc1Cl)C(=O)CS2 [Example 178, 1-(2-chloro-6-fluorobenzyl)-2-oxo-N-(2,4,6-trifluorobenzyl)-2,3-dihydro-1H-pyrido[2,3-b-1,4]thiazine-7-carboxamide] | < 1 | > 10 | > 10 | > 10 | > 10 |  | 
9 | O=C(NCc1ccco1)c1ccc2c(n1)N(Cc1c(F)cccc1Cl)C(=O)CS2 [Example 181, 4-(2-chloro-6-fluorobenzyl)-N-(furan-2-ylmethyl)-3-oxo-3,4-dihydro-2H-pyrido[3,2-b-1,4]thiazine-6-carboxamide] | 1 to 10 | > 10 | > 10 | > 10 | > 10 |  | 
10 | O=C(NCc1cc2ccccc2o1)c1ccc2c(n1)N(Cc1cc(F)cc(F)c1)C(=O)CS2 [Example 183, N-(benzofuran-2-ylmethyl)-4-(3,5-difluorobenzyl)-3-oxo-3,4-dihydro-2H-pyrido[3,2-b-1,4]thiazine-6-carboxamide] | 1 to 10 | 1 to 10 | 1 to 10 | > 10 | 1 to 10 |  | 
11 | CC1Sc2ccc(C(=O)NCc3ccc(F)cc3F)nc2N(Cc2c(F)cccc2Cl)C1=O (stereo not drawn) [Example 187, 4-(2-chloro-6-fluorobenzyl)-N-(2,4-difluorobenzyl)-2-methyl-3-oxo-3,4-dihydro-2H-pyrido[3,2-b-1,4]thiazine-6-carboxamide] | 1 to 10 | > 10 | > 10 | > 10 | > 10 |  | 
12 | CC1Sc2ccc(C(=O)NCc3cc4ccccc4o3)nc2N(Cc2c(F)cccc2Cl)C1=O (stereo not drawn) [Example 188, N-(benzofuran-2-ylmethyl)-4-(2-chloro-6-fluorobenzyl)-2-methyl-3-oxo-3,4-dihydro-2H-pyrido[3,2-b-1,4]thiazine-6-carboxamide] | < 1 | 1 to 10 | 1 to 10 | > 10 | 1 to 10 |  | 
13 | CC1Sc2ccc(C(=O)NCc3ccco3)nc2N(Cc2cc(F)cc(F)c2)C1=O (stereo not drawn) [Example 189, 4-(3,5-difluorobenzyl)-N-(furan-2-ylmethyl)-2-methyl-3-oxo-3,4-dihydro-2H-pyrido[3,2-b-1,4]thiazine-6-carboxamide] | < 1 | 1 to 10 | 1 to 10 | > 10 | > 10 |  | 
14 | Cc1ccc(CNC(=O)c2ccc3c(n2)N(Cc2cc(F)cc(F)c2)C(=O)C(C)S3)o1 (stereo not drawn) [Example 190, 4-(3,5-difluorobenzyl)-2-methyl-N-((5-methylfuran-2-yl)methyl)-3-oxo-3,4-dihydro-2H-pyrido[3,2-b-1,4]thiazine-6-carboxamide] | < 1 | 1 to 10 | 1 to 10 |  |  | 1 to 10 | 1 to 10
15 | CC1Sc2ccc(C(=O)NCc3ccccc3)nc2N(Cc2cc(F)cc(F)c2)C1=O (stereo not drawn) [Example 191, N-benzyl-4-(3,5-difluorobenzyl)-2-methyl-3-oxo-3,4-dihydro-2H-pyrido[3,2-b-1,4]thiazine-6-carboxamide] | < 1 | 1 to 10 | 1 to 10 | 1 to 10 | 1 to 10 |  | 
16 | CC1Sc2ncc(C(=O)NCc3c(F)cc(F)cc3F)cc2N(Cc2cc(F)cc(F)c2)C1=O (stereo not drawn) [Example 192, 1-(3,5-difluorobenzyl)-3-methyl-2-oxo-N-(2,4,6-trifluorobenzyl)-2,3-dihydro-1H-pyrido[2,3-b][1,4]thiazine-7-carboxamide] | < 1 | < 1 | < 1 | 1 to 10 | 1 to 10 |  | 
17 | CC1Sc2ncc(C(=O)NCc3cc4ccccc4o3)cc2N(Cc2cc(F)cc(F)c2)C1=O (stereo not drawn) [Example 193, N-(benzofuran-2-ylmethyl)-1-(3,5-difluorobenzyl)-3-methyl-2-oxo-2,3-dihydro-1H-pyrido[2,3-b][1,4]thiazine-7-carboxamide] | < 1 | 1 to 10 | 1 to 10 |  |  | > 10 | > 10
18 | CC1Sc2ncc(C(=O)NCc3cc4ccccc4o3)cc2N(Cc2cc(F)cc(F)c2)C1=O (stereo not drawn) [Example 194, N-(benzofuran-2-ylmethyl)-1-(3,5-difluorobenzyl)-3-methyl-2-oxo-2,3-dihydro-1H-pyrido[2,3-b][1,4]thiazine-7-carboxamide] | < 1 | < 1 | < 1 |  |  | 1 to 10 | 1 to 10
